How the values were obtained:
primary keratinocytes [1] = assay: Ornithine decarboxylase activity in primary keratinocytes; format: cell-based, mouse; conditions: 5 hours exposure
Method: Enzyme Assays. Activity of epidermal transglutaminase was determined by measuring cross-linking of ^3H-putrescine to dimethylcasein (20). Cell lysates were incubated at […] for 10 minutes to inactivate tissue transglutaminase. Ornithine decarboxylase activity of cell lysates was determined by quantifying release of ^14CO2 from ^14C-ornithine (Sako, T. et al, “Partial parallelism and partial blockade by bryostatin 1 of effects of phorbol ester tumor promoters on primary mouse epidermal cells,” Cancer Res., 47: 5445–5450, 1987).
Each point is the mean for four dishes±standard error of the mean from one experiment. Similar results were obtained in an additional experiment. As with staurosporine-mediated induction of transglutaminase, this response is restricted to a narrow dose range between 5 and 10 nM.

[2] = tested on: grafted SP-1 mouse papilloma cells; assay: Tumor formation from grafted SP-1 papilloma cells on nude mice, topical treatment; format: in vivo; conditions: 6.25 nmoles/treatment
Method: For grafting, BALB/c-derived nude mice, approximately two months-old, were used as hosts. Animals were anesthetized with Nembutal and sterile surgical technique was used. 0.5×10^6 SP-1 or 308 cells were grafted along with 6–8×10^6 primary SENCAR mouse dermal fibroblasts. […] Cells were removed from culture dishes by treatment with 0.25% trypsin-0.01% EDTA for approximately 10 min. at 36° and washed with medium. Suspensions of papilloma cells and primary dermal fibroblasts were centrifuged 5 min. at 1000 rpm, the medium aspirated, and the cell pellet applied to the graft bed using a sterile plastic transfer pipet. Graft tumors were measured weekly, using calipers, starting three weeks after grafting and for at least 5 additional weeks thereafter. As an approximate tumor volume, the height was multiplied by the smallest and largest lateral measurements. Data are expressed as means i standard error of the mean of approximate tumor volume in mm^3.
Five mice in each group were grafted Feb. 28, 1990 with 0.5×10^6 SP-1 cells+6×10^6 primary SENCAR mouse dermal fibroblasts.
Tumor measurements were begun three weeks after grafting and continued for eight weeks.
Ten mice in each group were grafted Mar. 22, 1990 with 0.5×10^6 SP-1 cells+6×10^6 primary SENCAR mouse dermal fibroblasts.
Ten mice in each group were grafted May 17, 1990 with 0.5×10^6 SP-1 cells+6×10^6 primary SENCAR mouse dermal fibroblasts. […]

[3] = tested on: human bladder carcinoma cells; conditions: systemic administration at 1/10 or 1/20 the maximum tolerated dose; cited from earlier work
40 kD protein (pp40) = assay: 32P phosphoprotein analysis in digitonin-permeabilized keratinocytes; format: cell-based, mouse; conditions: for phosphorylation of band at about 40 kD (pp40): 160 nM TPA or 10 nM staurosporine
Method: Cell Permeabilization and ^32P-Labelled Phosphoprotein Analysis. Primary mouse keratinocytes were permeabilized with digitonin to facilitate uptake of ^32P-ATP essentially as described (Erusalimsky, J. D. et al, “Diacylglycerols, and phorbol esters rapidly stimulate the phosphorylation of an Mr=80,000 protein kinase C substrate in permeabilized 3T3 cells,” J. Biol. Chem., 263: 19188–19194, 1988). To first assess the efficacy of permeabilization at different digitonin concentrations, 5–10 μg/ml of the DNA-binding fluorochrome propidium iodide (Jones, K. H. et al, “An improved method to determine cell viability by simultaneous staining with fluorescein diacetate-propidium iodide,” J. Histochem. Cytochem., 33: 77–79, 1985) was added to permeabilization buffer instead of labelled ATP. After incubation at 37° for 1–3 minutes, the buffer was removed and cells washed 3–4 times with PBS prior to fluorescence microscopy. […] Following ^32P-labelling, cells were immediately harvested and lysates subject to SDS/8.5% polyacrylamide gel electrophoresis. Approximate molecular weights were determined using pre-stained protein markers (Amersham, Arlington Heights, Ill.). Dried gels were exposed to Kodak X-Omat AR film at −70° prior to development.
Cells were harvested immediately and proteins separated by SDS/PAGE. Dried gels were exposed to Kodak X-Omat AR film at −70° for 12–24 hours prior to development.

primary keratinocytes [4] = assay: Cell toxicity by trypan blue exclusion; format: cell-based, mouse
Method: Miscellaneous Assays. Cell toxicity was determined using trypan blue exclusion as a marker for viable cells. Cells growing in 60 mm culture dishes were washed once with PBS, incubated at room temperature with 1 ml 0.4% trypan blue in normal saline (GIBCO, Rockville, Md.), washed twice with PBS, then placed on ice until cells were counted. Protein in cell lysates was determined using a commercial colorimetric assay (Bio-Rad Laboratories, Richmond, Calif.).
Phase-contrast photomicrographs were taken at the indicated times after beginning treatment. Similar results were obtained in three additional experiments. Magnification was ×90.

primary keratinocytes [5] = format: cell-based, mouse
Method: EGF binding was assessed in 6-well tissue culture dishes plated at a cell density of 2.5×10^6 cells/well (Strickland, J. E. et al, “Interaction of epidermal growth factor with basal and differentiating epidermal cells of mice resistant and sensitive to carcinogenesis,” Carcinogenesis, 5: 735–740, 1984). […] A second set of cultures received, in addition, 1 μg/ml unlabelled EGF to assess non-specific binding of radioactive ligand. Following the incubation period, cultures were washed 4 times with ice-cold binding buffer, harvested in 1.5 ml lysis buffer (0.1 M tris (pH 7.4), 0.5% SDS, 1 mM EDTA), and radioactivity determined by scintillation counting.
Exposure of a variety of cultured cell types to TPA results in inhibition of EGF binding which is attributed to PKC-mediated phosphorylation of the EGF receptor (Diamond, L., “Tumor promoters and cell transformation,” In: D. Grunberger and S. P. Goff. (eds.), Mechanisms of Cellular Transformation by Carcinogenic Agents, pp. 73–133, New York: Pergamon Press. 1987).
Each point is the mean of trilpicate dishes±standard error of the mean.

primary keratinocytes [6] = assay: Cornified envelope formation in primary keratinocytes; format: cell-based, mouse; conditions: 10 nM staurosporine or 160 nM TPA for 24 hours; 7 day old cultures
Method: Cornified Envelope Quantitation. Keratinocytes were analyzed for cornified envelope formation as described (Nagae, S. et al, “Effect of retinoic acid on cornified envelope formation: difference between spontaneous envelope formation in vivo or in vitro and expression of envelope competence,” J. Invest., Dermatol., 89: 51–58, 1987), with minor modifications. Floating cells were harvested by collecting culture medium from each 60 mm dish and combining with two washes using phosphate-buffered saline without Ca^2+ and Ms^+2 (PBS). Cells were pelleted for 5 minutes at 1000 rpm in a benchtop clinical centrifuge and resuspended in 100 μl of lysis buffer (2% sodium dodecyl sulfate (SDS) and 20 mM dithiothreitol in PBS). Attached cells were harvested in 250 μl lysis buffer, combined with the preparation of floating cells, and incubated at 95° for 10 minutes. The non-solubilized, intact cornified envelopes, characteristic of terminally differentiated keratinocytes, were counted using a hemocytometer (Nagae, S. et al, “Effect of retinoic acid on cornified envelope formation: difference between spontaneous envelope formation in vivo or in vitro and expression of envelope competence,” J. Invest. Dermatol., 89: 51–58, 1987).
Floating and attached cell populations were harvested and cornified envelopes isolated. Data are mean values for three separate dishes±standard error of the mean from one experiment.
7 day old primary keratinocytes were cultured with or without 60 nM bryostatin for 15 hours. […] Each data bar is the average value from duplicate dishes with the range indicated by error bars.

Structure (SMILES)	ornithine decarboxylase activity (primary keratinocytes [1])	effect of higher doses on papilloma growth [2]	retardation of tumor growth [3]	overall protein phosphorylation (40 kD protein (pp40); 10 nM staurosporine, 3 minutes)	effect of co-exposure on TPA-mediated phosphorylation of pp40 (40 kD protein (pp40); 160 nM TPA and 10 nM staurosporine)	phosphorylation of band at about 40 kD (pp40) (40 kD protein (pp40); 3 minutes)	inducing phosphorylation of pp40 (40 kD protein (pp40); additional doses ranging from 0.1 to 5 nM)	cells trypan blue positive (primary keratinocytes [4]; 7.5 hour exposure to 1 μM staurosporine) [%]	cells that took up trypan blue (primary keratinocytes [4]; ≦10 nM staurosporine) [%]	reduction of 125I-EGF binding relative to controls (primary keratinocytes [5]) [%]	increase in cornified envelopes relative to control cultures (primary keratinocytes [6]) [fold]
CN[C@@H]1C[C@H]2O[C@@](C)([C@@H]1OC)n1c3ccccc3c3c4c(c5c6ccccc6n2c5c31)C(=O)NC4 [staurosporine]	induction of ornithine decarboxylase activity	appear to stimulate papilloma growth	approximately 60%	reduction in overall protein phosphorylation	blocked the TPA-mediated phosphorylation	not detected	ineffective	74	< 5	–	–
CCCCCCCCCCCCCC(=O)O[C@@H]1[C@@H](C)[C@@]2(O)[C@@H](C=C(CO)C[C@]3(O)C(=O)C(C)=C[C@@H]23)[C@H]2C(C)(C)[C@]12OC(C)=O [TPA, 12-0-tetradecanoylphorbol-13-acetate, reference compound]	–	–	–	–	–	enhanced phosphorylation	–	–	–	94	4

From US7056908B2, “Pharmaceutical compositions and methods for preventing skin tumor formation and causing regression of existing tumors” (priority 1991, dated 2006)
